Read-outs that look alike come from different tables or passages of the source.
How the values were obtained:
Meloidogyne incognita [1] = experiment: Meloidogyne incognita test (sand, lettuce, gall formation); assay type: in vivo; settings: Meloidogyne incognita, 336 h, 20 ppm, after 14 days; read-out: nematicidal efficacy (formation of galls)
Outline: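 Vessels held sand, diluted compound solution, M. incognita egg/larvae suspension and lettuce seeds, and the plants grew for 14 days. Efficacy in % came from root gall formation: 100% means no galls, 0% means galls equal to the untreated control.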

Meloidogyne incognita [2] = experiment: Meloidogyne incognita test, comparative examples (soil drench, lettuce); assay type: in vivo; settings: 504 h, MELGIN, 21dat
Experimental: Meloidogyne incognita Test [table] To produce a suitable active compound preparation, 1 part by weight of active compound is mixed with the specified amounts of solvent and emulsifier, and the concentrate is diluted with water to the desired concentration, it being necessary to include the volume of soil which is drenched in the calculation. It should be ensured that a concentration of 20 ppm of emulsifier in the soil is not exceeded. To produce further test concentrations, water is used for dilution. Pots filled with soil (loamy sand) are watered with the active compound solution. An egg/larvae suspension of the southern root-knot nematode (Meloidogyne incognita) is added, lettuce seeds are scattered over the surface of the soil, and they are covered over with quartz sand. The lettuce seeds germinate and the plants develop. The galls develop on the roots. After 21 days, the nematicidal efficacy in % is determined by the formation of galls. 100% means that no galls have been found; 0% means that the number of galls on the treated plants corresponds to the untreated control.

Spodoptera frugiperda = Spodoptera frugiperda spray test; assay type: in vivo; settings: 500 g/ha, maize leaf discs, after 7 days
Experimental: Spodoptera frugiperda—Spray Test [table] To produce a suitable active compound preparation, 1 part by weight of active compound is dissolved with the specified parts by weight of solvent and made up to the desired concentration with water containing an emulsifier concentration of 1000 ppm. To produce further test concentrations, the formulation is diluted with emulsifier-containing water. Leaf discs of maize (Zea mays) are sprayed with an active compound preparation of the desired concentration and, after drying, populated with caterpillars of the armyworm (Spodoptera frugiperda). After 7 days, the efficacy in % is determined. 100% means that all the caterpillars have been killed; 0% means that no caterpillar has been killed.

Nilaparvata lugens = Nilaparvata lugens test; assay type: in vivo; settings: 500 g/ha, spray, rice plants, after 4 days
Experimental: Nilaparvata lugens Test [table] To produce a suitable active compound preparation, 1 part by weight of active compound is dissolved with the specified parts by weight of solvent and made up to the desired concentration with water containing an emulsifier concentration of 1000 ppm. To produce further test concentrations, the formulation is diluted with emulsifier-containing water. Rice plants (Oryza sativa) are sprayed with the active compound preparation of the desired concentration and then infected with larvae of the brown planthopper (Nilaparvata lugens). After 4 days, the efficacy in % is determined. 100% means that all of the planthoppers have been killed; 0% means that none of the planthoppers have been killed.

[3] = log P by HPLC on reversed-phase column (C18), EEC Directive 79/831 Annex V.A8; assay type: physicochemical
Experimental: The log P values were determined according to EEC Directive 79/831 Annex V.A8 by HPLC (high-performance liquid chromatography) on a reversed-phase column (C18). Temperature 43° C. The calibration is effected with unbranched alkan-2-ones (having 3 to 16 carbon atoms), for which the log P values are known. Here, the terms acidic and neutral are defined analogously to the definitions below for the determination of M^+. The determination of the M^+ by LC-MS in the acidic range was carried out at pH 2.7 using the mobile phases 0.1% aqueous formic acid and acetonitrile (contains 0.1% formic acid); linear gradient from 10% acetonitrile to 95% acetonitrile, instrument: Agilent 1100 LC system, Agilent MSD system, HTS PAL. The determination of the M^+ by LC-MS in the neutral range was carried out at pH 7.8 using the mobile phases 0.001 molar aqueous ammonium bicarbonate solution and acetonitrile; linear gradient from 10% acetonitrile to 95% acetonitrile.

Boophilus microplus = Boophilus microplus injection test; assay type: in vivo; settings: 20 μg/animal, after 7 days
Experimental: Boophilus microplus—Injection Test Solvent: dimethyl sulfoxide To produce a suitable active compound preparation, 10 mg of active compound are mixed with 0.5 ml of solvent and the concentrate is diluted to the desired concentration with solvent. 1 μl of the active compound solution is injected into the abdomen of 5 engorged adult female cattle ticks (Boophilus microplus). The animals are transferred into dishes and kept in a climate-controlled room. Efficacy is assessed after 7 days by laying of fertile eggs. Eggs which are not visibly fertile are stored in a climate-controlled cabinet until the larvae hatch after about 42 days. An efficacy of 100% means that none of the ticks has laid any fertile eggs; 0% means that all the eggs are fertile.

Myzus persicae [4] = experiment: Myzus persicae spray test (Chinese cabbage leaf discs); assay type: in vivo; settings: foliar, 144 h, 500 g/ha, after 6 days, read-out: efficacy
Experimental: Myzus persicae—Spray Test [table] To produce a suitable active compound preparation, 1 part by weight of active compound is dissolved with the specified parts by weight of solvent and made up to the desired concentration with water containing an emulsifier concentration of 1000 ppm. To produce further test concentrations, the formulation is diluted with emulsifier-containing water. Discs of Chinese cabbage leaves (Brassica pekinensis) infested by all stages of the green peach aphid (Myzus persicae) are sprayed with an active compound preparation of the desired concentration. After 6 days, the efficacy in % is determined. 100% means that all the aphids have been killed; 0% means that no aphids have been killed.

Tetranychus urticae = Tetranychus urticae spray test, OP-resistant; assay type: in vivo; settings: foliar, 144 h, bean leaf discs, after 6 days, read-out: efficacy
Experimental: Tetranychus urticae—Spray Test, OP-Resistant
(§1) To produce a suitable active compound preparation, 1 part by weight of active compound is dissolved with the specified parts by weight of solvent and made up to the desired concentration with water containing an emulsifier concentration of 1000 ppm. To produce further test concentrations, the formulation is diluted with emulsifier-containing water.
Discs of bean leaves (Phaseolus vulgaris) infested with all stages of the greenhouse red spider mite (Tetranychus urticae) are sprayed with an active compound preparation of the desired concentration.
After 6 days, the efficacy in % is determined. 100% means that all the spider mites have been killed; 0% means that no spider mites have been killed.

Phaedon cochleariae = Phaedon cochleariae spray test; assay type: in vivo; settings: 500 g/ha, Chinese cabbage leaf discs, after 7 days
Experimental: Phaedon cochleariae—Spray Test
as §1
After 7 days, the efficacy in % is determined. 100% means that all the beetle larvae have been killed; 0% means that no beetle larvae have been killed.

Myzus persicae [5] = experiment: Myzus persicae oral test; assay type: in vivo; settings: 120 h, 20 ppm, after 5 days, read-out: efficacy
Experimental: Myzus persicae—Oral Test [table] To produce a suitable active compound preparation, 1 part by weight of active compound is dissolved with the stated parts by weight of solvent and made up to the desired concentration with water. 50 μl of the active compound preparation are transferred into microtitre plates and made up to a final volume of 200 μl with 150 μl of IPL41 insect medium (33%+15% sugar). Subsequently, the plates are sealed with parafilm, which a mixed population of green peach aphids (Myzus persicae) within a second microtitre plate is able to puncture and imbibe the solution through it. After 5 days, the efficacy in % is determined. 100% means that all the aphids have been killed; 0% means that no aphids have been killed.

[6] = reversed-phase C18 HPLC column, neutral range, pH 7.8, aqueous ammonium bicarbonate/acetonitrile, 43° C., read-out: log P (neutral)
[7] = reversed-phase C18 HPLC column, pH 2.7, HCOOH (formic acid mobile phase), 43° C., read-out: log P (HCOOH)
[8] = reversed-phase C18 HPLC column, acidic range, pH 2.7, 0.1% aqueous formic acid/acetonitrile, 43° C., read-out: log P (acidic)

With `COc1ccc(Cl)c(S(=O)(=O)NC(=O)c2cc(-c3cc(Cl)cc(C(F)(F)F)c3)n(C)n2)c1` [I-141] the pest or weed control at 20 ppm (Meloidogyne incognita [1]) was 90% and the nematode control efficacy (%) at 8 ppm (Meloidogyne incognita [2]) was 99%.

In the case of `COc1ccc(Cl)c(S(=O)(=O)NC(=O)c2cc3cc(Cl)cc(Cl)n3n2)c1`, the nematode control efficacy (%) at 1 ppm (Meloidogyne incognita [2]) is reported as 0%.

With `O=C(NS(=O)(=O)c1ccccc1Cl)c1cn(Cc2ccccc2Cl)cn1` [I-156] the pest or weed control at 20 ppm (Meloidogyne incognita [1]) was 100% and the efficacy (Spodoptera frugiperda) was 100%.

Compound `CCc1ccc(C)c(S(=O)(=O)NC(=O)c2nc(Cl)n(CCC(F)(F)F)c2Cl)c1` [I-456] has a pest or weed control at 20 ppm (Meloidogyne incognita [1]) of 100% and an efficacy (Nilaparvata lugens) of 100%.

With `CCCn1cnc(C(=O)OCC)c1N` [ethyl 5-amino-1-propyl-1H-imidazole-4-carboxylate] the chromatographic logP [3, 6] was 0.9.

In the case of `O=C(NS(=O)(=O)c1ccccc1Cl)c1ncn(C2CC2C(F)(F)F)c1Cl` (stereo not drawn) [I-060], the “efficacy (laying of fertile eggs)” value (Boophilus microplus) is reported as 70%, the pest or weed control at 20 ppm (Meloidogyne incognita [1]) is reported as 90% and the pest or weed control at 500 g/ha (Myzus persicae [4]) is reported as 70%. The efficacy (Spodoptera frugiperda) was 100% and the pest or weed control at 500 g/ha (Tetranychus urticae) was 90%.

Compound `Cc1nc(C(=O)O)cn1-c1ccccc1Cl` [1-(2-chlorophenyl)-2-methyl-1H-imidazole-4-carboxylic acid] has a chromatographic logP [3, 7] of 0.67 and a chromatographic logP [3, 6] of -0.01.

With `COc1ccc(Cl)c(S(=O)(=O)NC(=O)c2nc(Cl)n(-c3cc(Cl)cc(Cl)c3)c2Cl)c1` [I-113] the pest or weed control at 20 ppm (Meloidogyne incognita [1]) was 100% and the nematode control efficacy (%) at 0.5 ppm (Meloidogyne incognita [2]) was 100%.

`CCCn1cnc(C(=O)NS(=O)(=O)c2ccc(OC)cc2)c1Cl` [5-chloro-N-[(4-methoxyphenyl)sulfonyl]-1-propyl-1H-imidazole-4-carboxamide] showed a chromatographic logP [3, 6] of 0.56.

Compound `COc1ccc(S(=O)(=O)NC(=O)c2ncn(CCC(F)(F)F)c2Cl)cc1C` [I-037] has a pest or weed control at 20 ppm (Meloidogyne incognita [1]) of 100% and an efficacy (Phaedon cochleariae) of 83%.

For `COc1ccc(Cl)c(S(=O)(=O)NC(=O)c2nc(Cl)n(C3CC3C(F)(F)F)c2Cl)c1` (stereo not drawn) [I-470], the pest or weed control at 20 ppm (Meloidogyne incognita [1]) was 100% and the nematode control efficacy (%) at 0.5 ppm (Meloidogyne incognita [2]) was 100%.

Work on `COc1ccc(Cl)c(S(=O)(=O)NC(=O)c2cn3cc(C(F)(F)F)cc(Cl)c3n2)c1` yielded a nematode control efficacy (%) at 0.5 ppm (Meloidogyne incognita [2]) of 55%.

Work on `Cc1nc(C(=O)NS(=O)(=O)c2ccccc2Cl)cn1-c1ccccc1Cl` [1-(2-chlorophenyl)-N-[(2-chlorophenyl)sulfonyl]-2-methyl-1H-imidazole-4-carboxamide] yielded a chromatographic logP [3, 6] of 0.85.

For `Cc1cc(C)cc(-n2cnc(C(=O)NS(=O)(=O)c3ccccc3)c2)c1` [I-284], the “efficacy (laying of fertile eggs)” value (Boophilus microplus) was 100%, the pest or weed control at 20 ppm (Meloidogyne incognita [1]) was 70% and the pest or weed control at 20 ppm (Myzus persicae [5]) was 100%.

`O=C(O)c1nc(Br)n(CCC(F)(F)F)c1Br` [2,5-dibromo-1-(3,3,3-trifluoropropyl)-1H-imidazole-4-carboxylic acid] showed a chromatographic logP ([3]; pH 2.7) of 1.49.

`O=C(NS(=O)(=O)c1ccccc1Cl)c1nc(Br)n(CCC(F)(F)F)c1Br` [I-107] gave a pest or weed control at 20 ppm (Meloidogyne incognita [1]) of 100% and an efficacy (Nilaparvata lugens) of 100%.

With `O=C(NS(=O)(=O)c1ccccc1)c1ncn(C2CC2C(F)(F)F)c1Cl` (stereo not drawn) [I-059] the “efficacy (laying of fertile eggs)” value (Boophilus microplus) was 100%, the pest or weed control at 20 ppm (Meloidogyne incognita [1]) was 100% and the pest or weed control at 500 g/ha (Myzus persicae [4]) was 70%. For the same compound, the efficacy (Phaedon cochleariae) was 83%, the efficacy (Spodoptera frugiperda) was 100% and the pest or weed control at 500 g/ha (Tetranychus urticae) was 90%.

Compound `COc1ccc(Cl)c(S(=O)(=O)NC(=O)c2cc(-c3cc(Cl)cc(Cl)c3)n(C)n2)c1` [I-137] has a pest or weed control at 20 ppm (Meloidogyne incognita [1]) of 100% and a nematode control efficacy (%) at 1 ppm (Meloidogyne incognita [2]) of 85%.

`COC(=O)c1cn(Cc2c(F)cccc2F)cn1` [methyl 1-(2,6-difluorobenzyl)-1H-imidazole-4-carboxylate] gave a chromatographic logP [3, 8] of 1.45 and a chromatographic logP [3, 6] of 1.55.

Compound `Cn1nc(C(=O)NS(=O)(=O)c2cc(Cl)ccc2Cl)cc1-c1cccc(C(F)(F)F)c1` [N-[(2,5-dichlorophenyl)sulfonyl]-1-methyl-5-[3-(trifluoromethyl)phenyl]-1H-pyrazole-3-carboxamide] has a chromatographic logP [3, 8] of 3.84.

In the case of `COC(=O)c1cn(CCC(F)(F)F)cn1` [methyl 1-(3,3,3-trifluoropropyl)-1H-imidazole-4-carboxylate], the chromatographic logP [3, 7] is reported as 0.87.

`COc1ccc(S(=O)(=O)NC(=O)c2ncn(C(C)CC(F)(F)F)c2Cl)cc1` (stereo not drawn) [I-070] gave a pest or weed control at 20 ppm (Meloidogyne incognita [1]) of 100% and an efficacy (Nilaparvata lugens) of 100%.

For `Cc1nc(C(=O)NS(=O)(=O)c2ccccc2)cn1-c1cccc(Cl)c1Cl` [I-268], the “efficacy (laying of fertile eggs)” value (Boophilus microplus) was 80%, the pest or weed control at 20 ppm (Meloidogyne incognita [1]) was 100% and the pest or weed control at 20 ppm (Myzus persicae [5]) was 90%. The pest or weed control at 500 g/ha (Myzus persicae [4]) was 90%.

In the case of `O=C(NS(=O)(=O)c1cccc(Cl)c1)c1cn(-c2cc(Cl)cc(C(F)(F)F)c2)cn1` [I-300], the pest or weed control at 20 ppm (Meloidogyne incognita [1]) is reported as 70% and the efficacy (Phaedon cochleariae) is reported as 100%.

`COc1ccc(Cl)c(S(=O)(=O)NC(=O)c2cc3c(Cl)cc(C(F)(F)F)cn3n2)c1` gave a nematode control efficacy (%) at 8 ppm (Meloidogyne incognita [2]) of 30%.

— patent US10820591B2, “Substituted sulfonyl amides for controlling animal pests” (Bayer Aktiengesellschaft, priority 2016, dated 2020)
